Measured values from ChEMBL document CHEMBL5244275, “Geminal Diheteroatomic Motifs: Some Applications of Acetals, Ketals, and Their Sulfur and Nitrogen Homologues in Medicinal Chemistry and Drug Design” (J Med Chem, 2021).
Converted amounts (≈) assume the structure as drawn.

What was measured:
[1] = Stability of the compound assessed as acid hydrolysis by measuring half-life; assay type: physicochemical
[2] = Inhibition of Leukotriene B4 production in human blood Polymorphonuclear neutrophil cells; assay type: functional, tissue-based
[3] = Stability of the compound at pH 8 assessed as compound hydrolysis by measuring half-life; assay type: physicochemical; conditions: buffer
[4] = molecular target: T1, Neutrophil elastase (Homo sapiens) (UniProt P08246); assay: Time-dependent inhibition of human leukocyte elastase assessed as observed binding constant
T1 sequence (whole entry): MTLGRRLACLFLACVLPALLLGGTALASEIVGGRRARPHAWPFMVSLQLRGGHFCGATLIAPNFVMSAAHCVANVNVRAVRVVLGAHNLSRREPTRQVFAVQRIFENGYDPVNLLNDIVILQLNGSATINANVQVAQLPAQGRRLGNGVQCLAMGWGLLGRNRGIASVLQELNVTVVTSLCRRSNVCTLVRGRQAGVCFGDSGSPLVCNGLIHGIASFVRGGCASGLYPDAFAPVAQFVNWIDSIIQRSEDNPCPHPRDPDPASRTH

[5] = Aqueous stability of the compound assessed as acid-catalyzed decomposition by measuring rate constant; assay type: physicochemical; conditions: buffer
[6] = Stability of the compound at pH 1 assessed as half-life; assay type: physicochemical; conditions: buffer
[7] = test system: Pasteurella multocida; assay: Antibacterial activity against Pasteurella multocida 59A0067 assessed as inhibition of bacterial growth by microdilution method; assay type: functional
[8] = test system: Staphylococcus aureus; assay: Antibacterial activity against Staphylococcus aureus 01A0785 assessed as inhibition of bacterial growth by microdilution method; assay type: functional
[9] = test system: Escherichia coli; assay: Antibacterial activity against Escherichia coli 51A0150 assessed as inhibition of bacterial growth by microdilution method; assay type: functional
[10] = test system: Hepatitis C virus; assay: Antiviral activity against Hepatitis C virus genotype 1a harboring NS5A Y93H mutant; assay type: functional, organism-based, Hepacivirus hominis
[11] = Oral bioavailability in rat; assay type: ADME, organism-based; conditions: in vivo
[12] = Cmax in rat plasma at 20 mg/kg, po; assay type: ADME, organism-based; set-up: dose 20 mg/kg, route po
[13] = molecular target: Human immunodeficiency virus type 1 protease (Human immunodeficiency virus 1, UniProt Q72874); assay: Inhibition of HIV-1 protease
[14] = Stability of the compound at pH 7.4 aqueous phosphate buffer assessed as half-life; assay type: physicochemical
[15] = Stability of the compound in 20% aqueous dioxane solution at 30 degreeC assessed as compound hydrolysis by measuring rate constant; assay type: physicochemical; conditions: buffer
[16] = test system: Escherichia coli; assay: Inhibition of Escherichia coli beta-lactamase at 1 uM relative to control
[17] = Oral bioavailability in human; assay type: ADME, organism-based; conditions: in vivo
[18] = Aqueous solubility of compound; assay type: physicochemical; conditions: aqueous (not further specified)
[19] = Inhibition of Calcium channel (unknown origin); set-up: species or system Homo sapiens

## O=c1[nH]cnc2c1ncn2[C@@H]1O[C@H](CO)C[C@@H]1F
[1]
  half-life: > 1 min

## O=C1OCc2c1cc1cc(OCc3cccc(C4(O)CC5COC(C4)O5)c3)ccc1c2-c1ccccc1 (stereo unspecified)
[2]
  IC50: 6 nM

## CC[C@@H]1C(=O)N(C(=O)NCc2ccccc2)[C@H]1Oc1ccc(C(=O)O)cc1
[3]
  half-life: > 80 h
[4]
  K: 2 10^3/M/s

## Cc1ccc(C2OCCS2)cc1 (stereo unspecified)
[5]
  K: 0.146 min⁻¹

## Cc1cn([C@H]2C=C[C@@H](CO)O2)c(=O)[nH]c1=O [STAVUDINE]
[6]
  half-life: 26 h

## CC[C@H]1OC(=O)[C@H](C)[C@@H](O[C@H]2C[C@@](C)(OC)[C@@H](O)[C@H](C)O2)[C@H](C)[C@@H](O[C@@H]2O[C@H](C)C[C@H](N(C)C)[C@H]2O)[C@](C)(O)C[C@@H](C)CN(C)[C@H](C)[C@@H](O)[C@]1(C)O [AZITHROMYCIN]
[7]
  MIC: 0.1 µg/mL (≈ 0.134 µM)
[8]
  MIC: 0.2 µg/mL (≈ 0.267 µM)
[9]
  MIC: 1.56 µg/mL (≈ 2.08 µM)

## COC(=O)N[C@H](C(=O)N1CCC[C@H]1c1ncc(-c2ccc(-c3cc4cc(-c5cnc([C@@H]6CCCN6C(=O)[C@@H](NC(=O)OC)C(C)C)[nH]5)ccc4o3)cc2)[nH]1)C(C)C
[10]
  EC50: 27 nM

## N#Cc1cc(-c2ccoc2)c2ccc(OCc3cccc(C4(O)CC5COC(C4)O5)c3)cc2c1 (stereo unspecified)
[2]
  IC50: 3 nM
[11]
  bioavailability: 10%
[12]
  Cmax: 2500 nM

## O=c1ccn([C@H]2C=C[C@@H](CO)O2)c(=O)[nH]1
[6]
  half-life: 15 h

## COc1ccc(S(=O)(=O)N(CC(C)C)C[C@@H](O)[C@H](Cc2ccccc2)NC(=O)O[C@H]2CO[C@H]3O[C@@H]4OCC[C@@H]4[C@H]32)cc1
[13]
  IC50: 1.8 nM

## O=[N+]([O-])c1ccc(C2OCCS2)cc1 (stereo unspecified)
[5]
  K: 0.00048 min⁻¹

## CCCCC[C@H](O)/C=C/[C@H]1O[C@@H]2O[C@@H]([C@H]2F)[C@@H]1C/C=C\CCCC(=O)O
[14]
  half-life: 480 h

## CCOC(OCC)(c1ccccc1)c1ccccc1
[15]
  K: 4.3 10^-1/M/s

## CC(C)(C)NC(=O)[C@@H]1C[C@@H]2CCCC[C@@H]2CN1C[C@@H](O)[C@H](Cc1ccccc1)NC(=O)O[C@H]1CC[C@H]2OCC[C@@H]12
[13]
  IC50: 17 nM

## CC1(C)[C@H](C(=O)O)N2C(=O)/C(=C/c3ccccc3)[C@H]2S1(=O)=O
[16]
  inhibition: 28%

## Clc1ccc(C2(c3ccc(Cl)cc3)OCCO2)cc1
[15]
  K: 3.3 10^-3/M/s

## CC1(C)[C@H](C(=O)O)N2C(=O)/C(=C/c3ccccn3)[C@H]2S1(=O)=O
[16]
  inhibition: 100%

## COc1ccc(C2OCCS2)cc1 (stereo unspecified)
[5]
  K: 0.778 min⁻¹

## CC[C@@H]1C(=O)N(C(C)=O)[C@H]1Oc1ccc(C(=O)O)cc1
[3]
  half-life: 8.6 h
[4]
  K: 6.7 10^3/M/s

## CC(C)[C@H](N)C(=O)OCCOCn1cnc2c(=O)[nH]c(N)nc21 [VALACYCLOVIR]
[17]
  bioavailability: 54%
[18]
  solubility: 174 mg/mL (≈ 536000 µM)

## O=C(O)[C@H]1/C(=C/CO)O[C@@H]2CC(=O)N21
[16]
  inhibition: 81%

## c1ccc(C2(c3ccccc3)OCCO2)cc1
[15]
  K: 3.6 10^-2/M/s

## Nc1ncnc2c1ncn2[C@@H]1O[C@H](CO)C[C@H]1F
[1]
  half-life: > 1 min

## CC[C@@H]1C(=O)N(C(C)=O)[C@H]1OC(C)=O (racemic)
[3]
  half-life: 2.4 h
[4]
  K: 4 10^3/M/s

## CC[C@@H]1C[C@H](O)[C@@H](C)NC[C@H](C)C[C@@]2(C)OC3(CCN(C(=O)c4ccco4)CC3)O[C@@H]([C@H](C)[C@H]2O[C@@H]2O[C@H](C)C[C@H](N(C)C)[C@H]2O)[C@@H](C)C(=O)O1
[7]
  MIC: 0.05 µg/mL (≈ 0.0693 µM)
[8]
  MIC: 0.78 µg/mL (≈ 1.08 µM)
[9]
  MIC: 0.78 µg/mL (≈ 1.08 µM)

## C[C@@H](O[C@H]1OCCN(Cc2n[nH]c(=O)[nH]2)[C@H]1c1ccc(F)cc1)c1cc(C(F)(F)F)cc(C(F)(F)F)c1 [APREPITANT]
[19]
  IC50: > 1000 nM
